Test results from patent US12157755B2, “CD73 inhibitor, preparation method therefor and application thereof” (Abbisko Therapeutics Co., Ltd., priority 2019, dated 2024).

Legend:
[1] = biological target: T1, CD73 (Homo sapiens, UniProt P21589); experiment: In vitro enzymatic activity against CD73 (malachite green test using soluble CD73); assay type: biochemical; conditions: soluble CD73 36 ng/mL, 50 μM AMP, 30 minutes at 25° C.
T1 construct: purchased R&D systems 5795-EN-010
T1 sequence (P21589 27-547 limits assumed): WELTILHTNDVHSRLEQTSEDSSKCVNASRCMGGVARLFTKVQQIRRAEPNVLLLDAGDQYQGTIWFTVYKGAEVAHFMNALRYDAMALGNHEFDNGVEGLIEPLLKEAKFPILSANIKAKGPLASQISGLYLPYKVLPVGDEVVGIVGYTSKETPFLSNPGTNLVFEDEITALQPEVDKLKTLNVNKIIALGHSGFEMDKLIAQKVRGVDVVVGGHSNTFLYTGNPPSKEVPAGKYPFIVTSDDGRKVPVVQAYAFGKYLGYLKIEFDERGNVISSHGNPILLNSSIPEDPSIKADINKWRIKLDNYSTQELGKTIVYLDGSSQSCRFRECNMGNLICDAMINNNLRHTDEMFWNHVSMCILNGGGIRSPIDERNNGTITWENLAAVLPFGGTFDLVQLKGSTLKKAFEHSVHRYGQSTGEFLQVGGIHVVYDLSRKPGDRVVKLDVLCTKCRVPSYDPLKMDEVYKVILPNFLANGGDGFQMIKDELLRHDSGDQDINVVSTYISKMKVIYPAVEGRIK
Experimental: The malachite green test using soluble CD73, which is synthesized in vitro was used in the present invention to determine the characteristics of inhibitory activity of the compounds against CD73. The specific experimental procedures were as following:
1. The enzyme reaction in this experiment was carried out in 384-well plates, and CD73 (R&D systems #5795-EN-010) at a concentration of 36 ng/mL, the compounds at different concentrations and 50 μM AMP were incubated for 30 minutes at 25° C. in a 40 uL reaction system (consisting of 25 mM Tris pH 7.5, 5 mM MgCl2, and 0.005% Tween-20);
2. Then, 10 μL of malachite green solution (Sigma) was added to each well to terminate the reaction;
3. The concentration of resulting inorganic phosphate was determined according to the instructions of the reagent manufacturer;
4. The enzymatic activity of CD73 was calculated based on the concentration of the product, and then IC50 values were determined by non-linear regression analysis of the inhibition percentage of the compounds of the present invention at different concentrations.

[2] = biological target: T2, CD73 enzymatic activity expressed on the cell surface of MDA-MB-231 cells (Homo sapiens, UniProt P21589); experiment: Inhibition of CD73 enzymatic activity on the cell surface (Cell Titer Glo (CTG) experiment), MDA-MB-231 cells; assay type: cell-based; conditions: MDA-MB-231 cells endogenously expressing CD73, AMP, 37° C. for 2 hours, CTG readout; read-out: Cellular activity IC50
T2 construct: Human breast cancer cells MDA-MB-231 that endogenously express CD73 were used; host or cells: MDA-MB-231
T2 sequence (P21589 27-549): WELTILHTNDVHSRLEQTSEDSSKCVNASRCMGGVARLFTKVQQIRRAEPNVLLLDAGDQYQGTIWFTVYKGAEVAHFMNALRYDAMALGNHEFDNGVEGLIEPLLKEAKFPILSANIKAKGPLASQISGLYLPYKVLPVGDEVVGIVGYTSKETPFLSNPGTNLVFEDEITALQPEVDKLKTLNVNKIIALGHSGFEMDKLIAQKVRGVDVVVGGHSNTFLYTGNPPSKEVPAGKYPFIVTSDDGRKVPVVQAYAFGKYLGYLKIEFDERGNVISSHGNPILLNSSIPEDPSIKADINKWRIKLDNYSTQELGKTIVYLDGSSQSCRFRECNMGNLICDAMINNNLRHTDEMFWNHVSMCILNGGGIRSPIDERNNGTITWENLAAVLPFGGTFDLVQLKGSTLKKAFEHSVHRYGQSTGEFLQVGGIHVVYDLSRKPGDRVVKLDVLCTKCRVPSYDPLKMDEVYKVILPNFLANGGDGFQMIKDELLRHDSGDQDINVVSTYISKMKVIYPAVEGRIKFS
Experimental: Human breast cancer cells MDA-MB-231 that endogenously express CD73 were used in the present invention to evaluate the inhibition of the compound against the CD73 enzymatic activity expressed on the cell surface. The cells used were from the Cell Bank of the Chinese Academy of Sciences. The specific experimental procedures were as follows:
1. Before the test, MDA-MB231 cells were seeded to a 96-well plate at 20000 cells/well;
2. In RPMI1640, 10% fetal bovine serum (Gibco, 10099-141), placed in a 5% CO2 incubator at 37° C. overnight (the cells were washed three times by using a serum-free RPMI medium right before the test):
3. 50 μl of serum-free media containing the compounds at different concentrations were added to the cells and incubated for 15 minutes;
4. 25 μL of 1.2 mM AMP was added for incubation at 37° C. for 2 hours, 25 μL of supernatant was then collected from the cells and mix with 25 μL of 100 μM ATP, and then the concentration of AMP in the samples was determined by CTG (Promega, #G7573);
5. Then, a reduction ratio of the substrate AMP level in the cell culture supernatant collected after the reaction was quantitatively determined to evaluate the inhibitory effects of the examples of the present invention and the positive compounds against the CD73 enzymatic activity on the cell surface;
6. Finally, the concentration of the compound leading to half maximal inhibition of enzymatic activity (IC50) was determined using a four-parameter non-linear logistic model curve fit in Graphpad Prism.

`O=P(O)(O)CP(=O)(O)OC[C@H]1C[C@@H](c2ccc3c(N[C@@H]4CCc5ccccc54)nc(Cl)nn23)[C@H](O)[C@@H]1O` [Example 25, (((((1R,2R,3S,4S)-4-(2-chloro-4-(((R)-2,3-dihydro-1H-inden-1-yl)amino)pyrrolo[2,1-f][1,2,4]triazin-7-yl)-2,3-dihydroxycyclopentyl)methoxy)(hydroxy)phosphoryl)methyl)phosphonic acid] was tested, and the IC50 [1] was 5.5 nM and the IC50 [2] was 0.55 nM.

For `O=P(O)(O)CP(=O)(O)OC[C@H]1C[C@@H](c2ccc3c(N[C@H]4CCc5cc(F)ccc54)nc(Cl)nn23)[C@H](O)[C@@H]1O` [Example 27, (((((1R,2R,3S,4S)-4-(2-chloro-4-(((S)-5-fluoro-2,3-dihydro-1H-inden-1-yl)amino)pyrrolo[2,1-f][1,2,4]triazin-7-yl)-2,3-dihydroxycyclopentyl)methoxy)(hydroxy)phosphoryl)methyl)phosphonic acid], the IC50 [1] was 82.6 nM and the IC50 [2] was 2.54 nM.

Work on `O=P(O)(O)CP(=O)(O)OC[C@H]1C[C@@H](c2ccc3c(N[C@@H]4CCc5cc(F)ccc54)nc(Cl)nn23)[C@H](O)[C@@H]1O` [Example 28, (((((1R,2R,3S,4S)-4-(2-chloro-4-(((R)-5-fluoro-2,3-dihydro-1H-inden-1-yl)amino)pyrrolo[2,1-f][1,2,4]triazin-7-yl)-2,3-dihydroxycyclopentyl)methoxy)(hydroxy)phosphoryl)methyl)phosphonic acid] yielded an IC50 [1] of 3.95 nM and an IC50 [2] of 0.252 nM.

`O=P(O)(O)CP(=O)(O)OC[C@H]1C[C@@H](c2ccc3c(N[C@H]4CCc5ccc(F)cc54)nc(Cl)nn23)[C@H](O)[C@@H]1O` [Example 29, (((((1R,2R,3S,4S)-4-(2-chloro-4-(((S)-6-fluoro-2,3-dihydro-1H-inden-1-yl)amino)pyrrolo[2,1-f][1,2,4]triazin-7-yl)-2,3-dihydroxycyclopentyl)methoxy)(hydroxy)phosphoryl)methyl)phosphonic acid] was tested, and the IC50 [1] was 15 nM and the IC50 [2] was 0.71 nM.

For `O=P(O)(O)CP(=O)(O)OC[C@H]1C[C@@H](c2ccc3c(N[C@@H]4CCc5ccc(F)cc54)nc(Cl)nn23)[C@H](O)[C@@H]1O` [Example 30, (((((1R,2R,3S,4S)-4-(2-chloro-4-(((R)-6-fluoro-2,3-dihydro-1H-inden-1-yl)amino)pyrrolo[2,1-f][1,2,4]triazin-7-yl)-2,3-dihydroxycyclopentyl)methoxy)(hydroxy)phosphoryl)methyl)phosphonic acid], the IC50 [1] was 3.4 nM and the IC50 [2] was 0.19 nM.

In the case of `O=P(O)(O)CP(=O)(O)OC[C@H]1C[C@@H](c2ccc3c(N[C@H]4CCc5cc(F)c(F)cc54)nc(Cl)nn23)[C@H](O)[C@@H]1O` [Example 31, (((((1R,2R,3S,4S)-4-(2-chloro-4-(((S)-5,6-difluoro-2,3-dihydro-1H-inden-1-yl)amino)pyrrolo[2,1-f][1,2,4]triazin-7-yl)-2,3-dihydroxycyclopentyl)methoxy)(hydroxy)phosphoryl)methyl)phosphonic acid], the IC50 [1] is reported as 48.6 nM and the IC50 [2] is reported as 0.95 nM.

For `O=P(O)(O)CP(=O)(O)OC[C@H]1C[C@@H](c2ccc3c(N[C@@H]4CCc5cc(F)c(F)cc54)nc(Cl)nn23)[C@H](O)[C@@H]1O` [Example 32, (((((1R,2R,3S,4S)-4-(2-chloro-4-(((R)-5,6-difluoro-2,3-dihydro-1H-inden-1-yl)amino)pyrrolo[2,1-f][1,2,4]triazin-7-yl)-2,3-dihydroxycyclopentyl)methoxy)(hydroxy)phosphoryl)methyl)phosphonic acid], the IC50 [1] was 4.08 nM and the IC50 [2] was 0.27 nM.

Work on `O=P(O)(O)CP(=O)(O)OC[C@H]1C[C@@H](c2ccc3c(N[C@H]4CCc5cc(F)cc(F)c54)nc(Cl)nn23)[C@H](O)[C@@H]1O` [Example 33, (((((1R,2R,3S,4S)-4-(2-chloro-4-(((S)-5,7-difluoro-2,3-dihydro-1H-inden-1-yl)amino)pyrrolo[2,1-f][1,2,4]triazin-7-yl)-2,3-dihydroxycyclopentyl)methoxy)(hydroxy)phosphoryl)methyl)phosphonic acid] yielded an IC50 [1] of 27.9 nM and an IC50 [2] of 2.4 nM.

`O=P(O)(O)CP(=O)(O)OC[C@H]1C[C@@H](c2ccc3c(N[C@@H]4CCc5cc(F)cc(F)c54)nc(Cl)nn23)[C@H](O)[C@@H]1O` [Example 34, (((((1R,2R,3S,4S)-4-(2-chloro-4-(((R)-5,7-difluoro-2,3-dihydro-1H-inden-1-yl)amino)pyrrolo[2,1-f][1,2,4]triazin-7-yl)-2,3-dihydroxycyclopentyl)methoxy)(hydroxy)phosphoryl)methyl)phosphonic acid] showed an IC50 [1] of 1.01 nM and an IC50 [2] of 0.22 nM.

For `O=P(O)(O)CP(=O)(O)OC[C@H]1C[C@@H](c2ccc3c(N[C@H]4CCc5ccc(C(F)(F)F)cc54)nc(Cl)nn23)[C@H](O)[C@@H]1O` [Example 35, (((((1R,2R,3S,4S)-4-(2-chloro-4-(((S)-6-(trifluoromethyl)-2,3-dihydro-1H-inden-1-yl)amino)pyrrolo[2,1-f][1,2,4]triazin-7-yl)-2,3-dihydroxycyclopentyl)methoxy)(hydroxy)phosphoryl)methyl)phosphonic acid], the IC50 [1] was 354 nM and the IC50 [2] was 5.73 nM.

`O=P(O)(O)CP(=O)(O)OC[C@H]1C[C@@H](c2ccc3c(N[C@@H]4CCc5ccc(C(F)(F)F)cc54)nc(Cl)nn23)[C@H](O)[C@@H]1O` [Example 36, (((((1R,2R,3S,4S)-4-(2-chloro-4-(((R)-6-(trifluoromethyl)-2,3-dihydro-1H-inden-1-yl)amino)pyrrolo[2,1-f][1,2,4]triazin-7-yl)-2,3-dihydroxycyclopentyl)methoxy)(hydroxy)phosphoryl)methyl)phosphonic acid] showed an IC50 [1] of 21.7 nM and an IC50 [2] of 0.63 nM.

Compound `O=P(O)(O)CP(=O)(O)OC[C@H]1C[C@@H](c2ccc3c(N[C@H]4CCc5cc(Cl)ccc54)nc(Cl)nn23)[C@H](O)[C@@H]1O` [Example 37, (((((1R,2R,3S,4S)-4-(2-chloro-4-(((S)-5-chloro-2,3-dihydro-1H-inden-1-yl)amino)pyrrolo[2,1-f][1,2,4]triazin-7-yl)-2,3-dihydroxycyclopentyl)methoxy)(hydroxy)phosphoryl)methyl)phosphonic acid] has an IC50 [1] of over 1000 nM and an IC50 [2] of 60 nM.

`O=P(O)(O)CP(=O)(O)OC[C@H]1C[C@@H](c2ccc3c(N[C@@H]4CCc5cc(Cl)ccc54)nc(Cl)nn23)[C@H](O)[C@@H]1O` [Example 38, (((((1R,2R,3S,4S)-4-(2-chloro-4-(((R)-5-chloro-2,3-dihydro-1H-inden-1-yl)amino)pyrrolo[2,1-f][1,2,4]triazin-7-yl)-2,3-dihydroxycyclopentyl)methoxy)(hydroxy)phosphoryl)methyl)phosphonic acid] showed an IC50 [1] of 7.8 nM and an IC50 [2] of 0.266 nM.
